Measurements: patent US20240050432A1 (Infinity Pharmaceuticals, Inc., priority 2020, published 2024)
Like-named read-outs stand apart in the source and are kept apart here.

What was measured:
Format in all cases: in vivo, human
PD-L1 = experiment: Paired tumor biopsies in TNBC phase II study: PD-L1 expression; settings: 11 paired tumor biopsies; triplet regimen
[1] = Hepatic TEAEs by eganelisib dose in combination with nivolumab (phase 1 Part C, phase 2)
[2] = Eganelisib exposures (Cmax, AUC0-24 hrs) with combination therapies, 3 clinical studies; settings: for observed highest individual concentration value: PK cutoff June-July 2020; for Cmax / AUC(0-t): human, in vivo
[3] = 30 mg QD, C1D1, model-predicted
[4] = 30 mg QD, C2D1, model-predicted
[5] = 40 mg QD, C1D1, model-predicted
[6] = 40 mg QD, C2D1, model-predicted

Cmax, Max [2, 3]: 1750 ng/mL | Cmax, Min [2, 3]: 637 ng/mL | Cmax, Max [2, 4]: 4070 ng/mL | Cmax, Min [2, 4]: 684 ng/mL | observed highest individual concentration value ([2]; 30 mg QD, across all 3 studies): 4.42 µg/mL | Cmax, Max [2, 5]: 3630 ng/mL | Cmax, Min [2, 5]: 346 ng/mL | Cmax, Max [2, 6]: 8830 ng/mL | Cmax, Min [2, 6]: 480 ng/mL | observed highest individual concentration value ([2]; 40 mg QD, across all 3 studies): 11.4 µg/mL | observed highest individual concentration lower for 30 mg QD versus 40 mg QD ([2]; across all 3 studies): 61% | Cmax ([2]; 30 mg QD, C1D1, model-predicted, read-out: Cmax, Mean): 1020 ng/mL | Cmax ([2]; 30 mg QD, C1D1, model-predicted, read-out: Cmax, Median): 978 ng/mL | AUC(0-t) ([2]; 30 mg QD, C2D1, model-predicted, read-out: AUC0-24 hrs, GeoMean): 29200 ng·h/mL | AUC(0-t) ([2]; 30 mg QD, C2D1, model-predicted, read-out: AUC0-24 hrs, Mean): 33600 ng·h/mL | AUC(0-t) ([2]; 30 mg QD, C2D1, model-predicted, read-out: AUC0-24 hrs, Median): 25800 ng·h/mL | Cmax ([2]; 30 mg QD, C2D1, model-predicted, read-out: Cmax, GeoMean): 1680 ng/mL | Cmax ([2]; 30 mg QD, C2D1, model-predicted, read-out: Cmax, Median): 1530 ng/mL | AUC(0-t) ([2]; 40 mg, 40 mg QD, C1D1, model-predicted, read-out: AUC0-24 hrs, GeoMean): 26200 ng·h/mL | AUC(0-t) ([2]; 40 mg, 40 mg QD, C1D1, model-predicted, read-out: AUC0-24 hrs, Mean): 28400 ng·h/mL | AUC(0-t) ([2]; 40 mg, 40 mg QD, C1D1, model-predicted, read-out: AUC0-24 hrs, Median): 26000 ng·h/mL | Cmax ([2]; 40 mg, 40 mg QD, C1D1, model-predicted, read-out: Cmax, GeoMean): 1550 ng/mL | Cmax ([2]; 40 mg, 40 mg QD, C1D1, model-predicted, read-out: Cmax, Mean): 1650 ng/mL | Cmax ([2]; 40 mg, 40 mg QD, C1D1, model-predicted, read-out: Cmax, Median): 1560 ng/mL | AUC(0-t) ([2]; 40 mg, 40 mg QD, C2D1, model-predicted, read-out: AUC0-24 hrs, GeoMean): 42100 ng·h/mL | AUC(0-t) ([2]; 40 mg, 40 mg QD, C2D1, model-predicted, read-out: AUC0-24 hrs, Mean): 49600 ng·h/mL | AUC(0-t) ([2]; 40 mg, 40 mg QD, C2D1, model-predicted, read-out: AUC0-24 hrs, Median): 41400 ng·h/mL | Cmax ([2]; 40 mg, 40 mg QD, C2D1, model-predicted, read-out: Cmax, GeoMean): 2470 ng/mL | Cmax ([2]; 40 mg, 40 mg QD, C2D1, model-predicted, read-out: Cmax, Mean): 2770 ng/mL | Cmax ([2]; 40 mg, 40 mg QD, C2D1, model-predicted, read-out: Cmax, Median): 2420 ng/mL | AUC(0-t) ([2]; oral, 30 mg QD, C1D1, model-predicted, read-out: AUC0-24 hrs, GeoMean): 16100 ng·h/mL | AUC(0-t) ([2]; oral, 30 mg QD, C1D1, model-predicted, read-out: AUC0-24 hrs, Mean): 16700 ng·h/mL | AUC(0-t) ([2]; oral, 30 mg QD, C1D1, model-predicted, read-out: AUC0-24 hrs, Median): 15900 ng·h/mL | Cmax ([2]; oral, 30 mg QD, C1D1, model-predicted, read-out: Cmax, GeoMean): 993 ng/mL | Cmax ([2]; oral, 30 mg QD, C2D1, model-predicted, read-out: Cmax, Mean): 1860 ng/mL
SMILES: C[C@H](NC(=O)c1c(N)nn2cccnc12)c1cc2cccc(C#Cc3cnn(C)c3)c2c(=O)n1-c1ccccc1 [Compound 1, eganelisib]
change of PD-L1 status/expression in paired tumor biopsies (PD-L1): on-mechanism conversion of patients from PD-L1(−) to PD-L1(+) and increase in PD-L1 expression in PD-L1(+) patients | subjects with Grade 3 hepatic TEAE ([1]; eganelisib 30 mg QD with nivolumab 480 mg Q4W): < 20% | subjects with Hepatic TEAEs ([1]; eganelisib 40 mg QD with nivolumab 480 mg Q4W): > 20%
